Several values for one entry are separate records, joined by “and”; a condition that tells them apart may be missing. Identical values can stand only once.
Tested on: smooth muscle cell chemotaxis
Experiment: smooth muscle cell chemotaxis (96 well chemotaxis chamber, PDGF-BB as inducer)
Format: cell-based
Conditions: four hours; for Degree of Cell Migration: absorbance; for IC50: 4 h, PDGF-BB 10 ng/ml as inducer, 37° C., read-out: half maximal inhibiting concentrations (IC50) to inhibit smooth muscle cell chemotaxis
Procedure: Compounds of the invention were tested for impact on smooth muscle cell chemotaxis using a model AB96 Neuro Probe® 96 well chemotaxis chaser. […] This chamber is available from Neuro Probe, Inc., P.O. Box 400, Cabin John, Md.
The chamber consists of a top plate, a bottom plate, a gasket and a polyvinyl pyrrolidone-free polycarbonate filter. […] The 8 μm pore filter is soaked in 0.5N acetic acid overnight and coated with collagen at 100 μg/ml in 0.1N acetic acid for 2 days. The filter is then dried in a hood. The filter is then installed on the bottom plate, followed by the gasket. The top plate is then placed on the gasket, forming the top wells. In the top wells, smooth muscle cells are placed with the compounds to be tested at specified concentrations in around 225 μl volume. The smooth muscle cells are plated at a density of 0.5×10^6 cells/mi. The chamber is incubated at 37° C., 5% CO2 for four hours, and at the end of this time the upper well-cells are scraped off. The lower well cells are fixed, stained, and the absorbance is read.

[1] = 0.1 μm compound, PDGF-BB 10 ng/ml
[2] = 10 μm compound, PDGF-BB 10 ng/ml
[3] = 0.03 μM compound, PDGF-BB 10 ng/ml
[4] = 0.3 μm compound, PDGF-BB 10 ng/ml

| Molecule | IC50 [nM] | Degree of Cell Migration [1] | other results |
| --- | --- | --- | --- |
| COc1cc2c(c(OC)c1OC)-c1ccc(OC)c(=O)cc1[C@@H](NC(C)=O)CC2 [Colchicine, reference compound] |  |  | Degree of Cell Migration (1 μm compound, PDGF-BB 10 ng/ml): 0.000 |
| COC[C@H]1OC(=O)c2coc3c2[C@@]1(C)C1=CC[C@]2(C)C(=O)CC[C@H]2C1C3=O (stereo partly drawn) [II, Δ9,11-dehydrodesacetoxywortmannin] | 200 |  |  |
| COCC1OC(=O)c2coc3c2C1(C)C1=C(C3=O)C2CCC(O)C2(C)CC1OC(C)=O (stereo not drawn) [IIIA, 17α-Dihydrowortmannin] | 20 | -0.010 | Degree of Cell Migration (0.01 μm compound, PDGF-BB 10 ng/ml): 0.033 |
| Cc1c2c(c(O)c3occ(C(=O)O)c13)[C@@H]1CCC(=O)[C@@]1(C)C=C2 [IVa, opened A-ring acid of wortmannin] | > 10000 |  | Degree of Cell Migration [2]: 0.04 |
| COC(=O)c1coc2c(O)c3c(c(C)c12)C=C[C@]1(C)C(=O)CC[C@@H]31 [IVb, opened A-ring methyl ester of wortmannin] | 10000 |  | Degree of Cell Migration [2]: 0.026 |
| COCC1OC(=O)c2coc3c2C1(C)C1=C(C3=O)C2CCC(=O)C2(C)CC1OC(C)=O (stereo not drawn) [Ia, wortmannin] | 30 | 0.006 | Degree of Cell Migration [3]: 0.020; Degree of Cell Migration [4]: -0.001 |
| COC[C@H]1OC(=O)c2coc3c2[C@@]1(C)C1=C(C3=O)[C@@H]2CCC(=O)[C@@]2(C)CC1 [Ib, 11-desacetoxywortmannin] | 200 | 0.040 and 0.028 | Degree of Cell Migration [3]: 0.044 and 0.036; Degree of Cell Migration [4]: 0.015 |
| PDGF: PDGF-BB at 10 ng/ml as an inducer, or chemoattractant (protein, UniProt P01127 82-190, looked up) Platelet-derived growth …: SLGSLTIAEPAMIAECKTRTEVFEISRRLIDRTNANFLVWPPCVEVQRCSGCCNNRNVQCRPTQVQLRPVQVRKIEIVRKKPIFKKATVTLEDHLACKCETVAAARPVT |  |  | Degree of Cell Migration (PDGF 10 ng/ml alone (inducer control)): 0.046 |

Reference: patent US5441947A, “Methods of inhibiting vascular restenosis” (Eli Lilly and Company, priority 1993, dated 1995)
